Assay results published in PubChem BioAssay AID2060511 (Molecular Pharmacology Branch, DTP, NCI, 2025).

Test system: 422866-222-R5-J1-PDC spheroids with HUVEC/MSC, viability
Experiment: Anticancer human tumor 422866-222-R5-J1-PDC patient-derived pancreatic adenocarcinoma cell line growth inhibition [GQUAD]
Details: for IC50: curve of first compound; for viability, T/C: stronger effect = lower value
Method in brief: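 Multi-cell-type spheroids of tumor cells with HUVEC and mesenchymal stem cells, treated with drug combinations. Concentrations descend in half-log steps from near clinical Cmax, or from 10 microM where Cmax is unknown; viability read-out.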

[1] = second compound 0.0316 µM, first compound 0.0316 µM
[2] = second compound 0.0316 µM, first compound 0.1 µM
[3] = second compound 0.0316 µM, first compound 0.316 µM
[4] = second compound 0.0316 µM, first compound 1 µM
[5] = second compound 0.0316 µM, first compound 3.16 µM
[6] = second compound 0.0316 µM, first compound 10 µM
[7] = second compound 0.1 µM, first compound 0.0316 µM
[8] = second compound 0.1 µM, first compound 0.1 µM
[9] = second compound 0.1 µM, first compound 0.316 µM
[10] = second compound 0.1 µM, first compound 1 µM
[11] = second compound 0.1 µM, first compound 3.16 µM
[12] = second compound 0.1 µM, first compound 10 µM
[13] = second compound 0.316 µM, first compound 0.0316 µM
[14] = second compound 0.316 µM, first compound 0.1 µM
[15] = second compound 0.316 µM, first compound 0.316 µM
[16] = second compound 0.316 µM, first compound 1 µM
[17] = second compound 0.316 µM, first compound 3.16 µM
[18] = second compound 0.316 µM, first compound 10 µM
[19] = second compound 1 µM, first compound 0.0316 µM
[20] = second compound 1 µM, first compound 0.1 µM
[21] = second compound 1 µM, first compound 0.316 µM
[22] = second compound 1 µM, first compound 1 µM
[23] = second compound 1 µM, first compound 3.16 µM
[24] = second compound 1 µM, first compound 10 µM
[25] = second compound 3.16 µM, first compound 0.0316 µM
[26] = second compound 3.16 µM, first compound 0.1 µM
[27] = second compound 3.16 µM, first compound 0.316 µM
[28] = second compound 3.16 µM, first compound 1 µM
[29] = second compound 3.16 µM, first compound 3.16 µM
[30] = second compound 3.16 µM, first compound 10 µM
[31] = second compound 10 µM, first compound 0.0316 µM
[32] = second compound 10 µM, first compound 0.1 µM
[33] = second compound 10 µM, first compound 0.316 µM
[34] = second compound 10 µM, first compound 1 µM
[35] = second compound 10 µM, first compound 3.16 µM
[36] = second compound 10 µM, first compound 10 µM
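Also: spheroids exposed to compounds for seven days before reading.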
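For viability, T/C in this document: percent viability relative to DMSO vehicle control taken as 100%.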

How did the IC50 (second compound 0.0316 µM) turn out when `COc1cccc2c1C(=O)c1c(O)c3c(c(O)c1C2=O)CC(O)(C(=O)CO)CC3OC1CC(N)C(O)C(C)O1` (stereo unspecified) + Cc1cnc(CNC(=O)c2c(=O)c3ccc(N4CCCN(C)CC4)nc3n3c2sc2ccccc23)cn1 was run?
The IC50 was 0.983 µM.

And the IC50 (second compound 0.1 µM)?
Its IC50 is 0.961 µM.

And the IC50 (second compound 0.316 µM)?
Its IC50 is 1.18 µM.

What about the IC50 (second compound 1 µM) of the same compound?
Its IC50 is 1.29 µM.

And the IC50 (second compound 3.16 µM)?
The IC50 was 1.4 µM.

And the IC50 (second compound 10 µM)?
Its IC50 is 1.11 µM.

What about the viability, T/C [1] of the same compound?
The viability, T/C was 100%.

And the viability, T/C [2]?
The viability, T/C was 65.7%.

And the viability, T/C [3]?
Its viability, T/C is 78.6%.

What about the viability, T/C [4] of the same compound?
The viability, T/C was 46.5%.

What about the viability, T/C [5] of the same compound?
Its viability, T/C is 33.9%.

What about the viability, T/C [6] of the same compound?
The viability, T/C was 25.7%.

What about the viability, T/C [7] of the same compound?
Its viability, T/C is 89.3%.

And the viability, T/C [8]?
The viability, T/C was 69.5%.

And the viability, T/C [9]?
The viability, T/C was 78.9%.

What about the viability, T/C [10] of the same compound?
Its viability, T/C is 48.7%.

What about the viability, T/C [11] of the same compound?
Its viability, T/C is 34.8%.

What about the viability, T/C [12] of the same compound?
Its viability, T/C is 30.1%.

What about the viability, T/C [13] of the same compound?
The viability, T/C was 83.3%.

And the viability, T/C [14]?
Its viability, T/C is 81.8%.

And the viability, T/C [15]?
The viability, T/C was 73%.

And the viability, T/C [16]?
Its viability, T/C is 51.5%.

And the viability, T/C [17]?
The viability, T/C was 37.3%.

What about the viability, T/C [18] of the same compound?
The viability, T/C was 30%.

What about the viability, T/C [19] of the same compound?
Its viability, T/C is 73.3%.

What about the viability, T/C [20] of the same compound?
The viability, T/C was 86.8%.

And the viability, T/C [21]?
The viability, T/C was 80.1%.

What about the viability, T/C [22] of the same compound?
Its viability, T/C is 54.8%.

What about the viability, T/C [23] of the same compound?
The viability, T/C was 33.7%.

And the viability, T/C [24]?
Its viability, T/C is 29.5%.

What about the viability, T/C [25] of the same compound?
Its viability, T/C is 95.4%.

What about the viability, T/C [26] of the same compound?
The viability, T/C was 80.4%.

What about the viability, T/C [27] of the same compound?
Its viability, T/C is 79.2%.

And the viability, T/C [28]?
The viability, T/C was 54.7%.

And the viability, T/C [29]?
The viability, T/C was 36.5%.

And the viability, T/C [30]?
The viability, T/C was 34.2%.

And the viability, T/C [31]?
The viability, T/C was 74.2%.

And the viability, T/C [32]?
The viability, T/C was 82.6%.

What about the viability, T/C [33] of the same compound?
The viability, T/C was 75%.

What about the viability, T/C [34] of the same compound?
The viability, T/C was 50.4%.

And the viability, T/C [35]?
Its viability, T/C is 35.6%.

What about the viability, T/C [36] of the same compound?
Its viability, T/C is 26.7%.

With `Cc1cccc(N(C)C(=O)C2C(O)CCN2c2nc(C)cc(C(F)(F)F)c2C#N)c1` (stereo unspecified) + Cc1cnc(CNC(=O)c2c(=O)c3ccc(N4CCCN(C)CC4)nc3n3c2sc2ccccc23)cn1 as the compound, how does the IC50 (second compound 0.0316 µM) read?
Its IC50 is > 10 µM.

And the IC50 (second compound 0.1 µM)?
The IC50 was > 10 µM.

What about the IC50 (second compound 0.316 µM) of the same compound?
The IC50 was > 10 µM.

And the IC50 (second compound 1 µM)?
Its IC50 is > 10 µM.

And the IC50 (second compound 3.16 µM)?
Its IC50 is > 10 µM.

And the IC50 (second compound 10 µM)?
Its IC50 is > 10 µM.

What about the viability, T/C [1] of the same compound?
The viability, T/C was 95%.

And the viability, T/C [2]?
The viability, T/C was 82.2%.

And the viability, T/C [3]?
The viability, T/C was 83.9%.

What about the viability, T/C [4] of the same compound?
Its viability, T/C is 92.8%.

And the viability, T/C [5]?
The viability, T/C was 90.5%.

What about the viability, T/C [6] of the same compound?
Its viability, T/C is 88.7%.

What about the viability, T/C [7] of the same compound?
The viability, T/C was 95.9%.

And the viability, T/C [8]?
The viability, T/C was 86.3%.

And the viability, T/C [9]?
The viability, T/C was 86.8%.

And the viability, T/C [10]?
Its viability, T/C is 83.7%.

And the viability, T/C [11]?
Its viability, T/C is 102%.

What about the viability, T/C [12] of the same compound?
Its viability, T/C is 90.9%.

What about the viability, T/C [13] of the same compound?
Its viability, T/C is 85.8%.

What about the viability, T/C [14] of the same compound?
Its viability, T/C is 90.5%.

What about the viability, T/C [15] of the same compound?
The viability, T/C was 98.9%.

And the viability, T/C [16]?
Its viability, T/C is 83.7%.

And the viability, T/C [17]?
Its viability, T/C is 85.3%.

And the viability, T/C [18]?
Its viability, T/C is 85.5%.

What about the viability, T/C [19] of the same compound?
The viability, T/C was 82%.

What about the viability, T/C [20] of the same compound?
Its viability, T/C is 85.8%.

What about the viability, T/C [21] of the same compound?
Its viability, T/C is 86.1%.

And the viability, T/C [22]?
Its viability, T/C is 79.7%.

And the viability, T/C [23]?
The viability, T/C was 94.1%.

And the viability, T/C [24]?
The viability, T/C was 91.6%.

And the viability, T/C [25]?
Its viability, T/C is 73.7%.

What about the viability, T/C [26] of the same compound?
Its viability, T/C is 80%.

And the viability, T/C [27]?
The viability, T/C was 86.1%.

And the viability, T/C [28]?
The viability, T/C was 79.7%.

And the viability, T/C [29]?
Its viability, T/C is 96.5%.

What about the viability, T/C [30] of the same compound?
Its viability, T/C is 78.8%.

What about the viability, T/C [31] of the same compound?
Its viability, T/C is 75.3%.

And the viability, T/C [32]?
Its viability, T/C is 75.6%.

What about the viability, T/C [33] of the same compound?
The viability, T/C was 75%.

And the viability, T/C [34]?
Its viability, T/C is 86.5%.

What about the viability, T/C [35] of the same compound?
The viability, T/C was 89%.

What about the viability, T/C [36] of the same compound?
Its viability, T/C is 77.7%.

For `Nc1ccn(C2OC(CO)C(O)C2(F)F)c(=O)n1` (stereo unspecified) + Cc1cnc(CNC(=O)c2c(=O)c3ccc(N4CCCN(C)CC4)nc3n3c2sc2ccccc23)cn1, which IC50 (second compound 0.0316 µM) is on record?
The IC50 was 1.19 µM.

What about the IC50 (second compound 0.1 µM) of the same compound?
Its IC50 is > 10 µM.

What about the IC50 (second compound 0.316 µM) of the same compound?
Its IC50 is > 10 µM.

What about the IC50 (second compound 1 µM) of the same compound?
The IC50 was > 10 µM.

And the IC50 (second compound 3.16 µM)?
Its IC50 is > 10 µM.

What about the IC50 (second compound 10 µM) of the same compound?
Its IC50 is > 10 µM.

What about the viability, T/C [1] of the same compound?
The viability, T/C was 86.7%.

And the viability, T/C [2]?
The viability, T/C was 67.8%.

And the viability, T/C [3]?
The viability, T/C was 69.1%.

What about the viability, T/C [4] of the same compound?
The viability, T/C was 47.2%.

And the viability, T/C [5]?
Its viability, T/C is 41.9%.

And the viability, T/C [6]?
The viability, T/C was 43%.

And the viability, T/C [7]?
The viability, T/C was 85.6%.

And the viability, T/C [8]?
Its viability, T/C is 87%.

And the viability, T/C [9]?
The viability, T/C was 70.7%.

And the viability, T/C [10]?
Its viability, T/C is 48.6%.

And the viability, T/C [11]?
The viability, T/C was 50.8%.

And the viability, T/C [12]?
The viability, T/C was 54.8%.

What about the viability, T/C [13] of the same compound?
The viability, T/C was 96.5%.

And the viability, T/C [14]?
Its viability, T/C is 81%.

What about the viability, T/C [15] of the same compound?
The viability, T/C was 70.3%.

What about the viability, T/C [16] of the same compound?
Its viability, T/C is 62.3%.

And the viability, T/C [17]?
The viability, T/C was 54.1%.

What about the viability, T/C [18] of the same compound?
The viability, T/C was 58.1%.

And the viability, T/C [19]?
Its viability, T/C is 78.2%.

What about the viability, T/C [20] of the same compound?
Its viability, T/C is 72.7%.

What about the viability, T/C [21] of the same compound?
Its viability, T/C is 74.3%.

What about the viability, T/C [22] of the same compound?
Its viability, T/C is 69.2%.

And the viability, T/C [23]?
Its viability, T/C is 68.3%.

What about the viability, T/C [24] of the same compound?
Its viability, T/C is 63.4%.

What about the viability, T/C [25] of the same compound?
Its viability, T/C is 70.5%.

And the viability, T/C [26]?
Its viability, T/C is 88.6%.

And the viability, T/C [27]?
Its viability, T/C is 72.4%.

What about the viability, T/C [28] of the same compound?
Its viability, T/C is 79.8%.

What about the viability, T/C [29] of the same compound?
Its viability, T/C is 71.2%.

What about the viability, T/C [30] of the same compound?
The viability, T/C was 58.4%.

What about the viability, T/C [31] of the same compound?
Its viability, T/C is 84.9%.

What about the viability, T/C [32] of the same compound?
Its viability, T/C is 78.4%.

What about the viability, T/C [33] of the same compound?
Its viability, T/C is 89.5%.

And the viability, T/C [34]?
The viability, T/C was 79.2%.

What about the viability, T/C [35] of the same compound?
The viability, T/C was 67.2%.

And the viability, T/C [36]?
The viability, T/C was 63.4%.
